Measurements from the NIST ThermoML archive (doi:10.1016/j.jct.2012.06.015).

Assay: xn = mol fraction of the nth substance listed
Settings: 101 kPa, Liquid, Vibrating tube method

Cn1ccnc1 [1-methylimidazole] + O
mass density [kg/m3]
Settings | 288.15 K | 293.15 K | 298.15 K | 303.15 K | 308.15 K | 313.15 K | 318.15 K | 323.15 K
x1 = 0.0443 | 1010.2 | 1008.3 | 1006.2 | 1003.9 | 1001.6 | 999.2 | 996.6 | 994.2
x1 = 0.1036 | 1022.1 | 1019.3 | 1016.5 | 1013.3 | 1010.2 | 1007.1 | 1003.9 | 1000.9
x1 = 0.2167 | 1037.4 | 1033.7 | 1030.1 | 1026 | 1022.1 | 1018.2 | 1014.3 | 1010.6
x1 = 0.3003 | 1044.4 | 1040.3 | 1036.3 | 1031.9 | 1027.8 | 1023.6 | 1019.3 | 1015.4
x1 = 0.4024 | 1048.9 | 1044.6 | 1040.5 | 1035.9 | 1031.5 | 1027.2 | 1022.7 | 1018.6
x1 = 0.4982 | 1050.2 | 1045.8 | 1041.6 | 1036.8 | 1032.4 | 1028 | 1023.5 | 1019.3
x1 = 0.5902 | 1049.3 | 1044.7 | 1040.5 | 1035.7 | 1031.3 | 1026.9 | 1022.5 | 1018.4
x1 = 0.7159 | 1046.7 | 1042.2 | 1038 | 1033.2 | 1028.8 | 1024.4 | 1020 | 1015.9
x1 = 0.7795 | 1044.7 | 1040.2 | 1036 | 1031.2 | 1026.8 | 1022.4 | 1018 | 1013.9
x1 = 0.8907 | 1041.8 | 1037.4 | 1033.3 | 1028.5 | 1024.1 | 1019.7 | 1015.3 | 1011.2
x1 = 1 | 1039.4 | 1035 | 1030.9 | 1026.1 | 1021.7 | 1017.3 | 1012.9 | 1008.8

O [water] + Cn1ccnc1
Settings | mass density [kg/m3]
318.15 K, x2 = 0 | 990.1
